Source: EPA's ToxValDB 9.5 (doi:10.2903/j.efsa.2013.3147)

What was measured:
Canidae = settings: oral, Dog Other, clinical chemistry

Question: With `COc1cc(C)c(C(=O)c2c(OC)ncc(Cl)c2C)c(OC)c1OC` [Pyriofenone] as the compound, how does the LD50 (Rattus norvegicus; acute, oral, mortality) read?
Answer: Its LD50 is greater than 2000 mg/kg-day.

Question: And the NOAEL (Rattus norvegicus; chronic, duration: 2 years, hematological)?
Answer: The NOAEL was 7.25 mg/kg-day.

Question: What about the NOAEL (Rattus norvegicus; reproduction developmental, hematological) of the same compound?
Answer: The NOAEL was 64.1 mg/kg-day.

Question: What about the NOAEL (Rattus norvegicus; subchronic, duration: 90 days, oral, organ weight) of the same compound?
Answer: The NOAEL was 17.9 mg/kg-day.

Question: What about the LC50 (Colinus virginianus; acute, oral, diet, mortality) of the same compound?
Answer: The LC50 was greater than 980 mg/kg-day.

Question: And the LD50 (Colinus virginianus; acute, oral, mortality)?
Answer: Its LD50 is greater than 2000 mg/kg-day.

Question: And the NOAEL (Colinus virginianus; reproduction developmental, reproduction)?
Answer: The NOAEL was 94 mg/kg-day.

Question: What about the NOAEL (Anas platyrhynchos; reproductive, reproduction) of the same compound?
Answer: The NOAEL was 119 mg/kg-day.

Question: And the LC50 (Anas platyrhynchos; short-term, oral, feed, mortality)?
Answer: Its LC50 is greater than 1290 mg/kg-day.

Question: What about the NOAEL (Canidae; chronic, duration: 1 years) of the same compound?
Answer: Its NOAEL is 13.7 mg/kg-day.

Question: And the NOAEL (Canidae; subchronic, duration: 90 days)?
Answer: Its NOAEL is 15 mg/kg-day.
